How the values were obtained:
[1] = tested on: NCI-H292 MTAP deleted cells; test: Cell growth inhibition (CellTiter-Glo, 144 h), single agents and combinations, CI by Calcusyn; type: cell-based; details: for IC20 / IC50: Homo sapiens, NCI-H292, single agent; for Max Inh %: single agent
Protocol: NCI-H292 MTAP deleted cell line was purchased from Nanjing Cobioer Biotechnology Co., Ltd. The cells were cultured in a cell culture medium containing 90% RPMI1640 and 10% fetal bovine serum at 37° C. and 5% CO2. Experiments could only be performed on cells in the logarithmic growth phase.
Adjust the cell density in complete medium and seed the cells into 96-well culture plates. Incubate the plates at 37° C. with 5% CO2. Add the two test compounds to the plates using a serial dilution scheme. Continue incubation at 37° C. and 5% CO2 for 144 h. Thaw the CellTiter-Glo (CTG) reagent and equilibrate the plates to room temperature for ˜30 min. Add an equal volume of CTG reagent to each well, shake on an orbital shaker for 5 min to lyse the cells, and allow the signal to stabilize at room temperature for 20 min. Measure luminescence on a plate reader and record the data. Data analysis:
Cell growth inhibition (%)=100−(Lum test drug−Lum culture medium control)/(Lum solvent control−Lum culture medium control)×100%
Calcusyn was used to analyze the combination index (CI) values.

[2] = tested on: human lung cancer PDX model LD1-0025-200729; test: In vivo pharmacodynamic study in PDX NU/NU mouse model of Osimertinib-resistant non-small cell lung cancer; set-up: species or system NU/NU mice; details: for Tumor volume (mm^3) Mean: each drug 10 mg/kg PO QD; for tumor growth inhibition (TGI) / statistical difference compared with the control group: each drug 10 mg/kg, PO, once daily; for tumor growth inhibition (TGI): 56-day study; for statistical difference compared with the control group: one-way ANOVA
Excerpt: NU/NU mice, female, 6-8 weeks old, weighing approximately 18-22 g. They were purchased from Beijing Vital River Laboratory Animal Technology Co., Ltd. All experimental mice were kept in the SPF-level animal room of Xi'an LIDE and acclimated for at least 3 days in advance. The lung cancer model tumor-bearing mice were chosen. When a tumor grew to 800-1000 mm^3, the tumor was taken out under sterile conditions and passed it subcutaneously into NU/NU mice. When the average tumor volume reached about 150 mm^3 (100-200 mm^3), 18 tumor-bearing mice were chosen and randomly divided into 6 groups according to the tumor volume. The day of grouping was Day 0, and they were administered according to the following solution:
N: Number of animals; dose volume: 10 μL/g; PO: per os. Administer Osimertinib or Osimertinib solvent first, and administer compound A or compound A solvent after an interval of 1 hour.
The main purpose was to detect the growth inhibition effect or complete cure ability of the test drug compound A as a single drug or in combination with Osimertinib on the human lung cancer PDX model LD1-0025-200729.
Tumor volume and weight measurement of tumor-bearing mice: A vernier caliper was used to measure twice a week. The calculation equation for tumor volume is V=0.5 a×b^2, where a and b represent the major and minor diameters of the tumor, respectively;
Tumor growth inhibition: TGI (%)=[1−(Ti−T0)/(Vi−V0)]×100
Ti is the mean tumor volume after the start of administration in the compound group, T0 is the mean tumor volume at the first dose in the compound group, V0 is the mean tumor volume at the first dose in the vehicle control group, and Vi is the mean tumor volume after the start of administration in the vehicle control group.

[3] = administration time 0 days (grouping)

| Structure (SMILES) | IC20 [1] [nM] | IC50 [1] [nM] | Max Inh % [1] [%] | Tumor volume (mm^3) Mean [2, 3] [mm^3] | Tumor volume (mm^3) Mean ([2]; administration time 4 days) [mm^3] | Tumor volume (mm^3) Mean ([2]; administration time 7 days) [mm^3] | Tumor volume (mm^3) Mean ([2]; administration time 11 days) [mm^3] | Tumor volume (mm^3) Mean ([2]; administration time 14 days) [mm^3] | Tumor volume (mm^3) Mean ([2]; administration time 18 days) [mm^3] | Tumor volume (mm^3) Mean ([2]; administration time 21 days) [mm^3] | Tumor volume (mm^3) Mean ([2]; administration time 25 days) [mm^3] | Tumor volume (mm^3) Mean ([2]; administration time 28 days) [mm^3] | Tumor volume (mm^3) Mean ([2]; administration time 32 days) [mm^3] | Tumor volume (mm^3) Mean ([2]; administration time 35 days) [mm^3] | Tumor volume (mm^3) Mean ([2]; administration time 39 days) [mm^3] | Tumor volume (mm^3) Mean ([2]; administration time 42 days) [mm^3] | Tumor volume (mm^3) Mean ([2]; administration time 46 days) [mm^3] | Tumor volume (mm^3) Mean ([2]; administration time 49 days) [mm^3] | Tumor volume (mm^3) Mean ([2]; administration time 53 days) [mm^3] | Tumor volume (mm^3) Mean ([2]; administration time 56 days) [mm^3] | further results |
| --- | --- | --- | --- | --- | --- | --- | --- | --- | --- | --- | --- | --- | --- | --- | --- | --- | --- | --- | --- | --- | --- |
| CN(C(=O)c1ccc2nc(N)c3cncn3c2c1)[C@@H]1COc2cc(C(F)(F)F)ccc21 [Compound A, (S)-4-amino-N-methyl-N-(6-(trifluoromethyl)-2,3-dihydrobenzofuran-3-yl)imidazo[1,5-a]quinoxaline-8-carboxamide] | 10.7 | 117 | 71.2 | 155.2 | 179.8 | 205.2 | 228.6 | 251.0 | 274.5 | 271.3 | 315.2 | 321.2 | 318.3 | 308.3 | 288.3 | 266.9 | 278.7 | 281.0 | 283.7 | 287.7 | TGI (%) ([1]; Compound A 3.20 nM, Osimertinib 0 nM): 11.4%; TGI (%) ([1]; Compound A 16.0 nM, Osimertinib 0 nM): 10.8%; TGI (%) ([1]; Compound A 80.0 nM, Osimertinib 0 nM): 45.6%; TGI (%) ([1]; Compound A 400 nM, Osimertinib 0 nM): 51.8%; TGI (%) ([1]; Compound A 2000 nM, Osimertinib 0 nM): 66.6%; TGI (%) ([1]; Compound A 10000 nM, Osimertinib 0 nM): 75.1%; Tumor volume (mm^3) Mean ([2]; administration time 57 days): 288.1 mm^3; tumor growth inhibition (TGI) [2]: 85.8%; statistical difference compared with the control group [2]: statistically significant difference |
| C[C@H](c1ccc(C(F)(F)F)cn1)N(C(=O)c1cc2c(cc1F)nc(N)c1cncn12)C1CC1 [Compound C] | 9.6 | 49.9 | 64.6 |  |  |  |  |  |  |  |  |  |  |  |  |  |  |  |  |  | TGI (%) ([1]; Compound C 3.20 nM, Osimertinib 0.0 nM): 4.0%; TGI (%) ([1]; Compound C 16.0 nM, Osimertinib 0.0 nM): 23.7%; TGI (%) ([1]; Compound C 80.0 nM, Osimertinib 0.0 nM): 38.2%; TGI (%) ([1]; Compound C 400 nM, Osimertinib 0.0 nM): 49.5%; TGI (%) ([1]; Compound C 2000 nM, Osimertinib 0.0 nM): 61.0%; TGI (%) ([1]; Compound C 10000 nM, Osimertinib 0.0 nM): 60.4% |
| C=CC(=O)Nc1cc(Nc2nccc(-c3cn(C)c4ccccc34)n2)c(OC)cc1N(C)CCN(C)C [Osimertinib, reference compound] | 18.6 | 50.2 | 91.1 | 155.7 | 185.9 | 208.3 | 232.2 | 253.6 | 288.4 | 310.4 | 369.2 | 407.1 | 439.2 | 470.2 | 501.3 | 534.5 | 589.4 | 605.3 | 633.7 | 679.4 | TGI (%) ([1]; Osimertinib 4 nM, Compound A 0 nM): 16.0%; TGI (%) ([1]; Osimertinib 4.1 nM, Compound C 0 nM): 20.5%; TGI (%) ([1]; Osimertinib 12 nM, Compound A 0 nM): 13.4%; TGI (%) ([1]; Osimertinib 12.3 nM, Compound C 0 nM): 18.8%; TGI (%) ([1]; Osimertinib 37 nM, Compound A 0 nM): 35.4%; TGI (%) ([1]; Osimertinib 37.0 nM, Compound C 0 nM): 34.3%; TGI (%) ([1]; Osimertinib 111 nM, Compound A 0 nM): 70.6%; TGI (%) ([1]; Osimertinib 111.1 nM, Compound C 0 nM): 68.4%; TGI (%) ([1]; Osimertinib 333 nM, Compound A 0 nM): 81.8%; TGI (%) ([1]; Osimertinib 333.3 nM, Compound C 0 nM): 81.4%; TGI (%) ([1]; Osimertinib 1000 nM, Compound A 0 nM): 90.9%; TGI (%) ([1]; Osimertinib 1000.0 nM, Compound C 0 nM): 92.3%; Tumor volume (mm^3) Mean ([2]; administration time 57 days): 689.6 mm^3; tumor growth inhibition (TGI) [2]: 43.1%; statistical difference compared with the control group [2]: no statistically significant difference |
